From patent publication US20160213639A1, “COMPOSITIONS AND METHODS FOR TREATING NON-ALCOHOLIC STEATOHEPATITIS” (MOCHIDA PHARMACEUTICAL CO., LTD., priority 2013, published 2016)

Experiments:
[1] = test system: CYP450; details: at free concentrations observed in humans; cited from earlier work
[2] = test system: NASH; assay: Phase II NASH trial: laboratory parameters and circulating markers; type: in vivo, human
Description: (§1) This example provides the protocol used for an ongoing phase II clinical trial, double blind, placebo-controlled study to investigate the safety, efficacy, and pharmacokinetic profile of two doses of EPA-E in subjects with NASH. Up to 70 subjects were enrolled into each treatment arm, for a total of 210 subjects to be enrolled. Block randomization using an interactive voice response system (IVRS) was used to assign patients in a 1:1:1 ratio to two active doses and placebo. Patients were stratified at randomization by presence or absence of diabetes. Patients with diabetes comprised no more than 25% of the total number of patients enrolled. Subjects were treated with 600 mg EPA-E, 900 mg EPA-E or placebo three times a day for one year.
(§2) Following confirmation of eligibility based on both inclusion and exclusion criteria, subjects were randomized to receive placebo or one of two doses of EPA-E (1800 mg/day or 2700 mg/day) in three divided doses daily. Block randomization using an interactive voice response system was used to assign subjects in a 1:1:1 ratio between the three arms. Subjects were stratified by the presence of diabetes, impaired glucose tolerance or metabolic syndrome on stable doses of medication. The total fraction of such individuals was capped at 40% of the study cohort.
(§3) All subjects were followed according to a predefined clinic schedule. Data from unscheduled visits were collected in separate forms. Following twelve months of treatment, all subjects underwent a protocol-driven liver biopsy. Study drug was then discontinued.
The primary one-year efficacy endpoint was a composite of either a NAS <3 without worsening of fibrosis or a drop in NAS by 2 or more with contribution from more than one parameter and no worsening of fibrosis. The proportions of subjects meeting this endpoint after 12 months of treatment in those receiving EPA-E were compared to those receiving placebo using the Cochrane-Armitage trend test. A short-term efficacy endpoint was changes from baseline in alanine aminotransferase at 3 and 6 months. This was assessed by analysis of covariance. Secondary endpoints included changes in the individual histological parameters related to NAFLD, overall NAS, liver enzymes and function, hemoglobin A1C, acute phase reactants, insulin sensitivity as measured by the homeostatic model (HOMA-IR), levels of cytokeratin 18 (CK18), hyaluronic acid, type IV collagen (7S domain), procollagen III peptide and key cytokines. Proportions of subjects meeting categorical endpoints were compared using the Cochrane-Armitage test for trend. Numerical scores were compared using Wilcoxon 2-sample tests. Safety-related endpoints included adverse events including hematological-, biochemical-, renal- and EKG-related abnormalities. These were enumerated.

[3] = test system: platelets; assay: Platelet anti-aggregation; type: cell-based; details: platelets from rats, rabbits and humans
[4] = Phase II NASH trial: safety analysis; type: in vivo, human; details: over the course of the study, all arms
Description: as §1, with “year. […]” for “year.”
The primary one-year efficacy endpoint was a composite of either a NAS <3 without worsening of fibrosis or a drop in NAS by 2 or more with contribution from more than one parameter and no worsening of fibrosis. […] This was assessed by analysis of covariance. Secondary endpoints included changes in the individual histological parameters related to NAFLD, overall NAS, liver enzymes and function, hemoglobin A1C, acute phase reactants, insulin sensitivity as measured by the homeostatic model (HOMA-IR), levels of cytokeratin 18 (CK18), hyaluronic acid, type IV collagen (7S domain), procollagen III peptide and key cytokines. […]

[5] = test system: methionine-choline deficient diet rat model of nonalcoholic steatohepatitis; assay: Methionine-choline deficient diet rat model of nonalcoholic steatohepatitis; type: in vivo; details: repeat oral administration at 1000 mg/kg
[6] = Elasticity of arteries; type: in vivo; details: rabbits
[7] = test system: galactosamine-induced steatohepatitis mouse model; assay: Galactosamine-induced steatohepatitis mouse model; type: in vivo; details: oral administration at 1000 mg/kg; by suppressing triglyceride accumulation
[8] = test system: NASH; assay: Phase II NASH trial: liver histology (NAS, steatosis, ballooning, inflammation, fibrosis); type: in vivo, human; details: for subjects who met the primary endpoint: 12 months, p=ns vs placebo (20); for mean decrease in NAS: placebo 0.9, p=n.s.; for subjects with a decrease in NAS by more than 2 points: placebo sixteen, p=n.s.
Description: as §1
In order to support the trial, EPA-E capsules and matching placebo capsules were prepared. EPA-E capsule is an oval soft gelatin capsule containing 300 mg of EPA-E as an active ingredient. […] These capsules are unidentifiable as EPA-E capsules or placebo capsules.
Subjects were administered orally 3 capsules 3 times daily, immediately after meals.
Adult subjects with biopsy-confirmed NASH within six months prior to randomization or those with suspected NASH were screened for the study. […] The histology was assessed using the NASH CRN criteria. The histological entry criteria included (1) the presence of possible or definite steatohepatitis, and (2) a NAFLD activity score (NAS) ≧4 with a minimum score of 1 each for steatosis and inflammation plus either ballooning or at least stage 1a sinusoidal fibrosis. The nonalcoholic nature of the disease was defined by a history of consumption of less than 3 drinks daily (approximately 10 gm alcohol/drink) for the previous 5 years. Those who exceeded these limits at the time of randomization or for more than 3 consecutive months within the five year time frame were excluded.
The liver biopsies from subjects being considered for the trial were sent to a central pathology laboratory where they were read and scored. A total of 4 pathologists with experience in liver histopathology reviewed the biopsies. All the pathologists underwent a training session conducted by the lead pathologist (OWC) prior to the study. After slide quality assessment, the cases were randomly assigned to 2 reviewers who scored fatty change, lobular inflammation, hepatocyte ballooning and fibrosis as previously described. If there was a discrepancy between any of these evaluations, a third randomly assigned reviewer agreed with one of the choices thereby producing a single concordant NAS and fibrosis score for the biopsy.
as §2, §3
The primary one-year efficacy endpoint was a composite of either a NAS <3 without worsening of fibrosis or a drop in NAS by 2 or more with contribution from more than one parameter and no worsening of fibrosis. The proportions of subjects meeting this endpoint after 12 months of treatment in those receiving EPA-E were compared to those receiving placebo using the Cochrane-Armitage trend test. A short-term efficacy endpoint was changes from baseline in alanine aminotransferase at 3 and 6 months. This was assessed by analysis of covariance. […]

[9] = Safety pharmacology studies; type: in vivo; details: oral doses up to 3000 mg/kg
[10] = Gastric fluid levels in pylorus-ligated rats; type: in vivo; details: 3000 mg/kg oral dose
[11] = ADME of 14C-EPA-E in rats (absorption, distribution, metabolites, excretion); type: in vivo
Procedure: EPADEL® is a product containing ethyl all-cis-5,8,11,14,17-eicosapentaenoate (EPA-E), one of the n-3 essential fatty acids. The preclinical absorption, distribution, metabolism and excretion (ADME) characteristics of EPA-E have been determined primarily in rats.
After administration of ^14C-EPA-E into the ligated intestine of rats, the residual radioactivity in the intestine at 24 hours was only 4.6% of the administered dose. Radioactivity transferred to the plasma and lymph was mainly detected in the triglyceride (TG) fraction in the early phase after dosing, while distribution to the free fatty acid (FFA) fraction was slight at all timepoints. […] Orally administered EPA-E was primarily incorporated in adrenal gland lipids as cholesterol esters of the fatty acids eicosapentaenoic acid (EPA), docosapentaenoic acid (DPA) and docosahexaenoic acid (DHA).
(§4) Consequently, when EPA-E is administered orally to humans, it would appear that it is well absorbed, even though the unchanged ethyl ester form is not detected, and the free form (EPA) is only detected at a very low level, in the blood. Due to this absorption mechanism of essential fatty acids, the administered EPA-E exists as a blood-constituent fatty acid in the total lipids. In fact, according to the approval package document of Lovaza®, the free form of EPA is undetectable in the circulation (<1 μM) following an oral dose of 4 g of Omacor® (a mixture of the ethyl esters of EPA and DHA) Following oral administration of EPA-E, EPA, DPA and DHA were isolated and identified as metabolites in tissues and plasma. EPA, DPA and DHA were incorporated into TG and PL. Radioactivity was primarily excreted in expired air (44%) after single oral administration at 30 mg/kg EPA-E with minimal excretion in bile and urine (˜3%) and approximately 20% excreted in feces.
Renal excretion was the elimination route for several minor highly polar metabolites (<0.4%), but EPA-E, EPA, DPA or DHA were not detected in the urine. In feces, EPA-E and EPA, evidently derived from the unabsorbed drug, were detected; however, no DPA or DHA was detected in the feces.
In the total lipid fraction of the liver, the radioactivity originated mainly from EPA, DPA and DHA. Thus, it is considered that EPA, DPA and DHA are the predominant metabolites of ^14C-EPA-E in tissues, as constituent fatty acids of the total lipid fraction.

[12] = test system: diet-induced hepatic steatosis model; assay: Mouse diet-induced hepatic steatosis model; type: in vivo; details: repeat oral administration at >0.1 mg/g
[13] = Lipid lowering in animal models; type: in vivo; details: rats, hamsters and rabbits
[14] = parameters: species or system dogs; details: dog, in vivo, po, 30 mg/kg, 1 week
Procedure: as §4

[15] = Hydrolysis in small intestine homogenates, lymph, plasma and liver homogenates; type: in vitro ADME; details: plasma and liver homogenates of the rat
[16] = single oral administration at 30 mg/kg

CC/C=C\C/C=C\C/C=C\C/C=C\C/C=C\CCCC(=O)O [EPA, eicosapentaenoic acid]
CYP450 inhibition [1]: unlikely to inhibit CYP450

CC/C=C\C/C=C\C/C=C\C/C=C\C/C=C\CCCC(=O)OCC [EPA-E, ethyl all-cis-5,8,11,14,17-eicosapentaenoate]
body mass index ([2]; across groups): remained similar across groups | AST, ALT or GGT ([2]; baseline to end of study, FIG. 8): no significant changes | HgbA1C or circulating fasting insulin concentrations ([2]; either active treatment arm compared to placebo): no significant changes | change in serum triglycerides ([2]; high dose EPA-E, placebo 11.5±50.9, p<0.05, Wilcoxon rank sum test): −4.9±116.0 | change in serum ALT ([2]; high dose EPA-E, placebo −24.1±48.3, p<0.05, Wilcoxon rank sum test): −3.2±51.5 | hepatic synthetic functions ([2]; over the course of the study): did not change over the course of the study and remained stable | effects on platelets [3]: anti-aggregation effects | deaths [4]: No deaths occurred | fibrosis [5]: inhibited fibrosis | elasticity of arteries [6]: preserve the elasticity of arteries | progression of steatohepatitis [7]: retarded progression of steatohepatitis | distribution of fibrosis scores ([8]; any of the treatment arms, over the duration of the study): no significant changes in the distribution of fibrosis scores | steatosis grade ([8]; cohort as a whole, low dose and high dose, efficacy evaluable dataset): Neither low dose-nor high dose-EPA-E affected the steatosis grade significantly | subjects who met the primary endpoint ([8]; high dose EPA-E (2700 mg/day)): 22 subjects | mean decrease in NAS ([8]; high dose EPA-E (2700 mg/day)): 0.8 | subjects with a decrease in NAS by more than 2 points ([8]; high dose EPA-E (2700 mg/day)): 18 subjects | subjects who met the primary endpoint ([8]; low dose EPA-E (1800 mg/day)): 19 subjects | mean decrease in NAS ([8]; low dose EPA-E (1800 mg/day)): 1 | subjects with a decrease in NAS by more than 2 points ([8]; low dose EPA-E (1800 mg/day)): 16 subjects | cytological ballooning and lobular inflammation scores ([8]; low dose and high dose, efficacy evaluable dataset): not significantly altered | increased likelihood of beneficial impact on overall NAS score ([8]; women <50, 1800 mg/day vs placebo, adjusted, p<0.03): 10 fold | increased likelihood of beneficial impact on steatosis grade ([8]; women <50, 1800 mg/day vs placebo, adjusted, p<0.04): 8 fold | increased likelihood of beneficial impact on overall NAS score ([8]; women <50, 2700 mg/day vs placebo, adjusted, p<0.04): 7 fold | odds ratio, beneficial impact in steatosis ([8]; women under 50 years of age, low dose EPA-E vs placebo, adjusted for baseline histology, BMI and changes in BMI, p=0.03): 7.9 | odds ratio, beneficial impact in overall NAS ([8]; women under 50 years of age, low dose EPA-E vs placebo, adjusted, p=0.02): 10.5 | odds ratio, beneficial impact in overall NAS ([8]; women under 50 years of age, second value (dose group not given), adjusted, p=0.03): 6.8 | effect on central nervous, autonomic nervous, respiratory and cardiovascular systems [9]: no effect on the central nervous, autonomic nervous, respiratory and cardiovascular systems | gastric fluid levels [10]: reduction in gastric fluid levels | radioactivity excreted in expired air ([11]; rat, in vivo, po, 30 mg/kg): 44% | radioactivity excreted in bile and urine [11, 16]: ~3% | radioactivity excreted in feces [11, 16]: approximately 20% | fat accumulation [12]: suppressed fat accumulation | hepatic SREBP-1c levels [12]: suppressing hepatic SREBP-1c levels | lipids [13]: lower lipids

CC/C=C\C/C=C\C/C=C\C/C=C\C/C=C\CCCC(=O)OCC [^14C-EPA-E]
residual radioactivity in the intestine ([11]; administration into the ligated intestine of rats, at 24 hours): 4.6 % of the administered dose | unchanged EPA-E in plasma or tissues ([11]; oral administration to the rat): no unchanged EPA-E was found | metabolites in the total lipid fraction of plasma and tissues ([11]; oral administration to the rat, liver, fat, heart and brain): EPA, DPA and DHA were detected as metabolites | distribution of radioactivity in body tissues ([11]; rats): relatively high levels were observed especially in the brown fat, adrenal, liver and pancreas | absorption ([11]; single oral dose 30-1000 mg/kg, rats): well-absorbed, mainly through the lymphatic route | radioactivity excreted in the urine [14]: 1.0% | radioactivity recovered in the feces [14]: 19.2% | hydrolysis [15]: hydrolyzed rapidly
